Key:
[1] = system: green peach aphid (Myzus persicae); test: Myzus test; assay type: in vivo; conditions: application rate 500 g/ha, spray on Chinese cabbage leaf slices, read-out: efficacy (aphids killed)
Procedure: • Solvent: 78.0 parts by weight of acetone • 1.5 parts by weight of dimethylformamide • Emulsifier: 0.5 part by weight of alkylaryl polyglycol ether
To produce an appropriate active ingredient formulation, 1 part by weight of active ingredient is mixed with the amounts of solvent and emulsifier specified and the concentrate is diluted to the desired concentration with emulsifier-containing water.
Chinese cabbage leaf slices (Brassica pekinensis) infested by all stages of the green peach aphid (Myzus persicae) are sprayed with an active ingredient formulation of the desired concentration.
After the desired time, the efficacy in % is determined 100% means that all aphids have been killed; 0% means that no aphids have been killed.

[2] = Determination of log P values by HPLC on reversed-phase column (formic acid method); assay type: physicochemical; conditions: reversed-phase C 18, acidic range (pH 3.4), formic acid eluents, 55° C.; for chromatographic logP: reversed-phase HPLC column (C 18), pH 3.4, HPLC, read-out: logP (HCOOH)
Procedure: 1) Description of Method for Determining the Log P Values (Formic Acid Method)
The log P values reported in the table were determined according to EEC-Directive 79/831 Annex V.A8 by HPLC (High Performance Liquid Chromatography) on a reversed-phase column (C 18). […]
Eluent A: acetonitrile+1 ml of formic acid/liter. Eluent B: water+0.9 ml of formic acid/liter.
Gradient: from 10% eluent A/90% eluent B to 95% eluent A/5% eluent B in 4.25 min
The calibration was effected with unbranched alkan-2-ones (with 3 to 16 carbon atoms), whose log P values are known (determination of the log P values on the basis of the retention times by linear interpolation between two successive alkanones). The lambda-max values were determined with reference to the UV spectra from 200 nm to 400 nm in the maxima of the chromatographic signals.

SMILES	pest or weed control at 500 g/ha [1]	chromatographic logP [2]	logP (HCOOH) ([2]; HPLC)
Cc1cc(CN(C)C(=O)c2cnc(-c3cccnc3)s2)nn1C [Compound 161]	≥ 70%	1.26	–
Cc1nc(-c2cccnc2)sc1C(=O)NCC1COC(C)(C)O1 (centres unmarked) [Compound 155]	≥ 70%	1.48	–
Cc1nc(-c2cccnc2)sc1C(=O)NCC1(C)CCCO1 (centres unmarked) [Compound 160]	≥ 70%	1.27	–
Cc1nc(-c2cccnc2)sc1C(=O)NCc1ccncc1 [Compound 169]	≥ 70%	0.69	–
Cn1nc(-c2cccnc2)cc1C(=O)NCC(F)F [Compound 25]	≥ 70%	0.65	–
Cc1nc(-c2cccnc2)sc1C(=O)NCC(C)F (centres unmarked) [Compound 75]	≥ 70%	1.34	–
Cc1nc(-c2cccnc2)sc1C(=O)N(C)CC(F)(F)F [Compound 42]	≥ 70%	1.81	–
Cc1nc(-c2cncnc2)sc1C(=O)NCC(F)(F)F [Preparation Example 5]	≥ 70%	1.61	–
Cc1nc(-c2cccnc2)sc1C(=O)NC1CC(C(F)(F)F)CC(C(F)(F)F)C1 (centres unmarked) [Compound 152]	≥ 70%	2.95	–
COC1(NC(=O)c2sc(-c3cccnc3)nc2C)CC1 [Compound 129]	≥ 70%	1.23	–
CN(CC1CCCO1)C(=O)c1cnc(-c2cccnc2)s1 (centres unmarked) [Compound 180]	≥ 70%	1.33	–
Cc1nc(-c2cccnc2)sc1C(=O)N(CC#N)C(=O)C1(F)CC1 [Compound 140]	≥ 70%	1.93	–
C#CC(C)ONC(=O)c1sc(-c2cccnc2)nc1C (centres unmarked) [Compound 158]	≥ 70%	1.48	–
COCN(C(=O)c1sc(-c2cccnc2)nc1C)C(C)C(=O)OC (centres unmarked) [Compound 109]	≥ 70%	1.61	–
CN(CCF)C(=O)c1cnc(-c2cccnc2)s1 [Compound 136]	≥ 70%	1.17	–
COc1ccc(CN(CC(F)(F)F)C(=O)c2sc(-c3cccnc3)nc2C)cc1 [Compound 185]	≥ 70%	2.91	–
Cc1nc(-c2cccnc2)sc1C(=O)NCc1nccs1 [Compound 130]	≥ 70%	1.38	–
CSC[C@H](C)N(C)C(=O)c1sc(-c2cccnc2)nc1C [Compound 71]	≥ 70%	1.71	–
CSC[C@H](C)NC(=O)c1sc(-c2cccnc2)nc1C [Compound 56]	≥ 70%	1.68	–
Cc1nc(-c2cccnc2)sc1C(=O)NCC(F)(Cl)Cl [Compound 96]	≥ 70%	1.98	–
Cc1nc(CNC(=O)c2cc(-c3cccnc3)nn2C)no1 [Compound 26]	≥ 70%	0.54	–

SMILES	pest or weed control at 500 g/ha [1]	chromatographic logP [2]	logP (HCOOH) ([2]; HPLC)
COCN(CC(F)(F)F)C(=O)c1sc(-c2cccnc2)nc1C [Compound 69]	≥ 70%	2.06	–
COCN(Cc1ncccn1)C(=O)c1sc(-c2cccnc2)nc1C [Compound 99]	≥ 70%	1.28	–
NC(=O)c1cnc(-c2cccnc2)s1 [Compound 72]	≥ 70%	0.29	–
Cc1nc(-c2cccnc2)sc1C(=O)NCc1ccon1 [Compound 60]	≥ 70%	1.14	–
Cc1cc(CNC(=O)c2sc(-c3cccnc3)nc2C)n(C)n1 [Compound 105]	≥ 70%	1.23	–
Cc1cc(CNC(=O)c2sc(-c3cccnc3)nc2C)no1 [Compound 98]	≥ 70%	1.45	–
Cc1nc(-c2cccnc2)sc1C(=O)NN1CCCC1 [Compound 201]	≥ 70%	1.37	–
CCN(CC#N)C(=O)c1cnc(-c2cccnc2)s1 [Compound 137]	≥ 70%	1.28	–
O=C(N[C@H]1C[C@@H]1F)c1cnc(-c2cccnc2)s1 [Compound 118]	≥ 70%	1.14	–
Cc1nccc(CNC(=O)c2sc(-c3cccnc3)nc2C)n1 [Compound 107]	≥ 70%	1.03	–
Cn1nc(-c2cncc(F)c2)cc1C(=O)NCC(C)(F)F [Compound 12]	≥ 70%	1.89	–
CON(C)C(=O)c1sc(-c2cccnc2)nc1C [Compound 143]	≥ 70%	1.42	–
Cc1nc(-c2cccnc2)sc1C(=O)NCC(F)(F)C(F)F [Compound 82]	≥ 70%	1.75	–
Cc1nc(-c2cccnc2)sc1C(=O)NC(C)CC(F)(F)F (centres unmarked) [Compound 86]	≥ 70%	1.94	–
O=C(NC(C(F)(F)F)C(F)(F)F)c1cnc(-c2cccnc2)s1 [Compound 171]	≥ 70%	2.3	–
Cc1nc(-c2cccnc2)sc1C(=O)NC1(c2ccccn2)CC1 [Compound 167]	≥ 70%	0.97	–
Cc1nc(-c2cncnc2)sc1C(=O)NCc1ncccn1 [Compound 22]	≥ 70%	1.05	–
Cc1nc(-c2cccnc2)sc1C(=O)N[C@H]1C[C@@H]1F [Compound 54]	≥ 70%	1.16	–
Cc1nccc(CNC(=O)c2cnc(-c3cccnc3)s2)n1 [Compound 74]	≥ 70%	0.94	–
Cc1nc(-c2cccnc2)sc1C(=O)N(C)CC(F)(F)C(F)F [Compound 43]	≥ 70%	1.69	–
Cc1nc(-c2cccnc2)sc1C(=O)NC(C(C)C)C(F)(F)F (centres unmarked) [Compound 146]	≥ 70%	2.48	–

SMILES	pest or weed control at 500 g/ha [1]	chromatographic logP [2]	logP (HCOOH) ([2]; HPLC)
Cc1nc(-c2cncc(F)c2)sc1C(=O)NCC(F)(F)F [Compound 9]	≥ 70%	2.15	–
COC(=O)C1(NC(=O)c2sc(-c3cccnc3)nc2C)CC1 [Compound 51]	≥ 70%	1.3	–
Cn1nc(-c2cncc(F)c2)cc1C(=O)NCc1ncccn1 [Compound 11]	≥ 70%	1.24	–
CN(Cc1cccnc1)C(=O)c1cnc(-c2cccnc2)s1 [Compound 127]	≥ 70%	0.98	–
Cc1nc(-c2cccnc2)sc1C(=O)NCC(F)(F)F [Compound 39]	≥ 70%	1.63	–
CCN(C)C(=O)c1cnc(-c2cccnc2)s1 [Compound 61]	≥ 70%	1.23	–
Cc1nc(-c2cccnc2)sc1C(=O)NC(C)c1ccccn1 (centres unmarked) [Compound 87]	≥ 70%	1.1	–
CN(CC(F)(F)F)C(=O)c1cnc(-c2cccnc2)s1 [Compound 192]	≥ 70%	1.59	–
CN(Cc1ccccn1)C(=O)c1cnc(-c2cccnc2)s1 [Compound 134]	≥ 70%	0.41	–
COC(C)(CNC(=O)c1sc(-c2cccnc2)nc1C)OC [Compound 174]	≥ 70%	1.44	–
CSCC(C)(C)NC(=O)c1sc(-c2cccnc2)nc1C [Compound 73]	≥ 70%	2.05	–
Cc1nc(-c2cccnc2)sc1C(=O)N(CCCF)CC(F)(F)F [Compound 124]	≥ 70%	2.11	–
COC(=O)C[n+]1cccc(-c2nc(C)c(C(=O)NCC(F)(F)F)s2)c1 [Compound 138]	≥ 70%	1.09	–
Cn1nc(-c2cccnc2)cc1C(=O)NCc1ncccn1 [Compound 28]	≥ 70%	0.25	–
Cc1nc(-c2cccnc2)sc1C(=O)NN(C)Cc1ccccn1 [Compound 200]	≥ 70%	1.01	–
Cc1nc(-c2cccnc2)sc1C(=O)NC(C)(C)C(F)(F)F [Compound 182]	≥ 70%	2.24	–
Cc1nc(-c2cccnc2)sc1C(=S)NCC(F)(F)F [Preparation Example 4]	≥ 70%	2.39	2.38
Cc1nc(-c2cccnc2)sc1C(=O)NC(C)c1ncccn1 (centres unmarked) [Compound 37]	≥ 70%	1.24	–
Cc1nc(-c2cccnc2)sc1C(=O)NC1CCC(C(F)(F)F)CC1 (centres unmarked) [Compound 123]	≥ 70%	2.42	–
Cc1nc(-c2cccnc2)sc1C(=O)N(C)CC1COCCO1 (centres unmarked) [Compound 159]	≥ 70%	1.26	–

Reference: patent US9428487B2, “Heteroaromatic amides and thioamides as pesticides” (Bayer Intellectual Property GmbH, priority 2008, dated 2016)
